Earlier results as cited in patent US20020177624A1, “Acetate-lactate buffering vaginal gel and for method of making same and treating bacterial vaginosis” (priority 2001, published 2002).

Test system: bacterial vaginosis
Conditions: oral administration

**Q.** Which “success of treatment of bacterial vaginosis” value does the source give for Cc1ncc([N+](=O)[O-])n1CCO [metronidazole] here?
**A.** Its value is “often highly successful”.
